Key:
[1] = system: 3D Sebocytes culture (human cell line SEBO662); assay: Lipid accumulation (Oil-red-O staining) in 3D model culture of Sebocytes; format: cell-based; conditions: 14 days incubation, lipid droplet surface area
From the text: Since secretory cells (meibocytes) of meibomian glands, share similarities with that of the secretory cells (sebocytes) of sebaceous glands, as can be validated from their similar structure, similar function and their joint embryologic development (Knop 2011_IOVS) the effect of Thiol containing Lipids on lipid production can be evaluated in a 3D model culture of Sebocytes. See also: Barrault 2012, Immortalized sebocytes can spontaneously differentiate into a sebaceous-like phenotype when cultured as a 3D epithelium, Exp. Derm, 21:299-319
The effect of different compounds on lipid synthesis was evaluated, in a 3D model culture of Sebocytes. Drug candidates were compounds comprising a thiol group. Selenium disulfide (SeS2 dispersed in CarboxymethylCellulose—CMC) as a positive control. Since Sebocytes differentiation is associated with increased lipid synthesis and accumulation, evaluation of proliferation and differentiation was done by quantifying lipid accumulation in the 3D Sebocytes culture (human cell line—SEBO662). Lipid accumulation was evaluated by lipid staining with Oil red staining.
Sebocytes SEBO662 were cultured into a three dimension (3D) epithelium and differentiated to a sebaceous-like phenotype. The Sebocytes were treated or not (control) with the test compounds and incubated for 14 days. All experiments were performed 3 times. After incubation, tissues were snap-frozen. Formaldehyde-fixed cryo sections were stained using an Oil-red-O solution and counterstained using haematoxylin. For each test condition, the sections were observed using a light microscope equipped with a camera. Five pictures were taken per replicate, making 15 values per treatment condition. The lipid content in each sample was quantified by calculation of the lipid droplet surface area. Quantitative comparison of all data points between lipid's droplet surface area of tested compounds versus control was performed

[2] = Ex vivo free thiol determination in the human skin model system; conditions: non-toxic concentrations
Description: (§1) Dose response and time course analyses was performed initially in order to evaluate the impact of bucillamine on HaCaT cell viability. Then, selected non-toxic concentrations were further evaluated by BrdU incorporation to determine the ability of the test item to reduce the keratinocyte proliferation rate. In addition, the ability of the test items to reduce thiol moieties, and therefore loosen the blockage of the meibomian gland, was tested on stratum corneum obtained from human skin.
(§2) The cells were incubated without or with six concentrations of the test item, for 24, 48 and 72 hr at 37° C. with 5% CO2 under humidified conditions. At the end of each incubation period, cell viability was measured by MTT assay. A blank control was subtracted from all the measurements. HaCaT Turnover Rate Determination The proliferation rate of HaCaT cells upon treatments with the test item was examined by using the BrdU assay. Colorimetric evaluation of the turnover rate was recorded by ELISA reader. Ex Vivo Assessment in the Human Skin Model System The human skin organ culture was obtained from healthy patient undergoing plastic surgery. The study was initiated the day of surgery.
To isolate the free thiol from the mixture of the samples, samples were incubated with equal volume of TCA (trichloroacetic acid) for 5 min. […] The pellets were evaluated.

HaCaT cells = assay: HaCaT turnover rate determination (BrdU assay); format: cell-based; conditions: BrdU incorporation, non-toxic concentrations
Description: as §1, §2

Row | Compound | lipid accumulation in the upper region of the 3D Sebocytes (% of the control) ([1]; 0.01 μM) | lipid accumulation in the upper region of the 3D Sebocytes (% of the control) ([1]; 0.1 μM) | lipid accumulation in the upper region of the 3D Sebocytes (% of the control) ([1]; 1 μM) | increase of free thiol moieties (keratolytic efficacy) [2] | keratostatic efficacy: turnover rate of the keratinocytes cells (HaCaT cells)
1 | CC(C)(S)C(=O)N[C@@H](CS)C(=O)O [Bucillamine, bucillamine] | 115 % of the control | 172 % of the control | 214 % of the control | approx. 6 fold | reducing the turnover rate
2 | S=[Se]=S [Selenium disulfide] | 282 % of the control | 348 % of the control | – | – | –

— patent US11484516B2, “Agents for increasing meibomian gland lipid secretion” (Azura Ophthalmics Ltd., priority 2017, dated 2022)
